Ends that are not written are not given here.
Experiments:
[1] = system: anti-ribosomal P protein antibodies (IgG) in serum samples; experiment: Antibody detection by covalent ELISA (peptide covalently linked to plate); type: binding, human; conditions: for healthy donor positive sera (%): 6 healthy donor sera diluted 1:100; for SLE positive sera (%): 8 SLE sera diluted 1:100; for SLE positive sera (positive/tested): SLE sera diluted 1:100; for healthy donor positive sera (positive/tested): healthy donor sera diluted 1:100
Description: A peptide, prepared as described in example 1, was covalently linked to a 96-wells microtitre plate (carboxy or amine binding plate) using sulfo-N-hydroxysuccinimide and 1-ethyl-3-(3-dimethylaminopropyl)carbodiimide. Peptide coupling took place for 2 h at r.t. The plate was blocked for 1 h with 5% FBS in PBS or with 0.5 M Gly (pH 8). The patients serum samples were diluted 1:100 in FBS buffer and were then loaded onto the plate for 1.5 h at r.t. After plate washings, an anti human-IgG antibody conjugated to the enzyme alkaline phosphatase was added and incubated for 1.5 h at r.t. After washings, the alkaline phosphate substrate p-nitrophenyl phosphate was added to the wells. After the quenching of the enzymatic reaction with 1 M NaOH, the absorbance was evaluated at a wavelength of 405 nm.

[2] = system: anti-ribosomal P protein antibodies (IgG) in serum samples; experiment: Antibody detection by ELISA (peptide adsorbed onto microtitre plate); type: binding, human
Description: A peptide, prepared as described in example 1 and diluted in 0.05 M carbonate buffer (pH 9.6) or in PBS buffer (pH 7.4) was adsorbed onto 96-wells microtitre plates for 4 h at r.t. The wells were treated for 1 h at r.t. with FBS (FBS 5% in PBS). The patients serum samples (diluted 1:100) were then loaded onto the plate and allowed to react overnight at +4° C. After plate washing, an anti human-IgG antibody conjugated to the enzyme alkaline phosphatase was added and incubated for 3 h at r.t. After washings, the alkaline phosphate substrate p-nitrophenyl phosphate was added to the wells. After the quenching of the enzymatic reaction with 1 M NaOH, the absorbance was evaluated at a wavelength of 405 nm.
In total, 25 serum samples of patients suffering from SLE and 68 serum of healthy blood donors were tested by this method.

[3] = system: SLE specific auto-antibodies in patients sera; conditions: literature; cited from earlier work

Substance: LIKAAGVNVEPFWPGLFAKA [Peptide 1, linear peptide derived from the N-terminal region of human ribosomal P1 protein]
- healthy donor positive sera (%) [1]: 0%
- SLE positive sera (%) [1]: 50%
- SLE positive sera (positive/tested) [1]: 4/8
- healthy donor positive sera (positive/tested) [1]: 0/6
- SLE positive sera (%) ([2]; 25 SLE sera, diluted 1:100, adsorbed peptide): 32%
- healthy donor positive sera (%) ([2]; 68 healthy blood donor sera, diluted 1:100, adsorbed peptide): 1%
- number of SLE sera negative to peptide 9 in which anti ribosomal antibodies were detected ([2]; SLE serum negative to peptide 9): 3
- number of peptide 9-positive SLE sera showing cross-reactivity with peptide 1 ([2]; among the SLE sera positive to peptide 9): 4
- healthy donor positive sera (positive/tested) ([2]; sera of healthy blood donors, diluted 1:100, adsorbed peptide): 1/68
- SLE positive sera (positive/tested) ([2]; sera of patients suffering from SLE, diluted 1:100, adsorbed peptide, absorbance 405 nm): 8/25

Substance: LIKAAGVNVE [Peptide 2]
- healthy donor positive sera (%) [1]: 0%
- SLE positive sera (%) [1]: 37%
- SLE positive sera (positive/tested) [1]: 3/8
- healthy donor positive sera (positive/tested) [1]: 0/6

Substance: NH2-Lys-Lys-Glu-Glu-Lys-Lys-Glu-Glu-Ser-Glu-Glu-Glu-Asp-Glu-Asp-Met-Gly-Phe-Gly-Leu-Phe-Asp-COOH (H-KKEEKKEESEEEDEDMGFGLFD-OH) [Peptide C-22, peptide comprising the last 22 amino acids of ribosomal P proteins]
- patients sera in which SLE specific auto-antibodies are detected [3]: 10-20%

Substance: PFWPGLFAKA [Peptide 4]
- healthy donor positive sera (%) [1]: 0%
- SLE positive sera (%) [1]: 12%
- SLE positive sera (positive/tested) [1]: 1/8
- healthy donor positive sera (positive/tested) [1]: 0/6

Substance: GVNVEPFWPGL [Peptide 3]
- healthy donor positive sera (%) [1]: 0%
- SLE positive sera (%) [1]: 12%
- SLE positive sera (positive/tested) [1]: 1/8
- healthy donor positive sera (positive/tested) [1]: 0/6

Source: patent publication US20110028409A1, “DETECTION OF ANTI-RIBOSOMAL P PROTEIN ANTIBODIES BY MEANS OF SYNTHETIC PEPTIDES” (TOSCANA BIOMARKERS S.R.L., priority 2009, published 2011)
